From the NIST ThermoML archive (doi:10.1021/je2010038)
Numbers after ± are expanded uncertainties.

Assays:
[1] = xn = mol fraction of the nth substance listed; settings: x2 = 0; for surface tension liquid-gas: Pendant drop shape; for mass density: Liquid, Vibrating tube method
[2] = for mass density: Liquid, Vibrating tube method; for surface tension liquid-gas: Pendant drop shape

O [water] + NCCO showed a surface tension liquid-gas ([1]; 303.15 K) of 71.3 ± 0.76 mN/m, a surface tension liquid-gas ([1]; 313.15 K) of 69.55 ± 0.75 mN/m and a surface tension liquid-gas ([1]; 323.15 K) of 67.98 ± 0.74 mN/m. For the same compound, the mass density ([1]; 323.15 K, 101 kPa) was 988 ± 0.7 kg/m3, the mass density ([1]; 328.15 K, 101 kPa) was 985.7 ± 0.7 kg/m3 and the surface tension liquid-gas ([1]; 333.15 K) was 66.16 ± 0.73 mN/m. The mass density ([1]; 333.15 K, 101 kPa) was 983.2 ± 0.7 kg/m3, the mass density ([1]; 338.15 K, 101 kPa) was 980.5 ± 0.7 kg/m3 and the mass density ([1]; 343.15 K, 101 kPa) was 977.7 ± 0.7 kg/m3. For the same compound, the mass density ([1]; 348.15 K, 101 kPa) was 974.8 ± 0.7 kg/m3, the mass density ([1]; 353.15 K, 101 kPa) was 971.8 ± 0.7 kg/m3 and the mass density ([1]; 358.15 K, 101 kPa) was 968.6 ± 0.7 kg/m3. For the same compound, the mass density ([1]; 363.15 K, 101 kPa) was 965.3 ± 0.7 kg/m3, the mass density ([1]; 373.1 K, 700 kPa) was 958.6 ± 0.7 kg/m3 and the mass density ([1]; 383.15 K, 700 kPa) was 951.2 ± 0.7 kg/m3. It also gave a mass density ([1]; 393.15 K, 700 kPa) of 943.4 ± 0.7 kg/m3, a mass density ([1]; 403.15 K, 700 kPa) of 935.1 ± 0.7 kg/m3 and a mass density ([1]; 413.15 K, 700 kPa) of 926.3 ± 0.7 kg/m3. For the same compound, the mass density ([1]; 423.15 K, 700 kPa) was 917.1 ± 0.7 kg/m3.
NCCO [2-aminoethan-1-ol] gave a mass density ([2]; 298.15 K, 101 kPa) of 1011.9 ± 0.7 kg/m3, a surface tension liquid-gas ([2]; 303.15 K) of 48.13 ± 0.63 mN/m and a mass density ([2]; 303.15 K, 101 kPa) of 1008 ± 0.7 kg/m3. It also gave a mass density ([2]; 308.15 K, 101 kPa) of 1004 ± 0.7 kg/m3, a surface tension liquid-gas ([2]; 313.15 K) of 46.66 ± 0.63 mN/m and a mass density ([2]; 313.15 K, 101 kPa) of 1000 ± 0.7 kg/m3. It also gave a mass density ([2]; 318.15 K, 101 kPa) of 996 ± 0.7 kg/m3, a surface tension liquid-gas ([2]; 323.15 K) of 45.58 ± 0.62 mN/m and a mass density ([2]; 323.15 K, 101 kPa) of 992 ± 0.7 kg/m3. The mass density ([2]; 328.15 K, 101 kPa) was 988 ± 0.7 kg/m3, the surface tension liquid-gas ([2]; 333.15 K) was 44.63 ± 0.62 mN/m and the mass density ([2]; 333.15 K, 101 kPa) was 983.9 ± 0.7 kg/m3. For the same compound, the mass density ([2]; 338.15 K, 101 kPa) was 979.8 ± 0.7 kg/m3, the mass density ([2]; 343.15 K, 101 kPa) was 975.8 ± 0.7 kg/m3 and the mass density ([2]; 348.15 K, 101 kPa) was 971.6 ± 0.7 kg/m3. It also gave a mass density ([2]; 353.15 K, 101 kPa) of 967.5 ± 0.7 kg/m3, a mass density ([2]; 358.15 K, 101 kPa) of 963.4 ± 0.7 kg/m3 and a mass density ([2]; 363.15 K, 101 kPa) of 959.2 ± 0.7 kg/m3. For the same compound, the mass density ([2]; 373.1 K, 700 kPa) was 950.9 ± 0.7 kg/m3, the mass density ([2]; 383.15 K, 700 kPa) was 942.3 ± 0.7 kg/m3 and the mass density ([2]; 393.15 K, 700 kPa) was 933.5 ± 0.7 kg/m3. For the same compound, the mass density ([2]; 403.15 K, 700 kPa) was 924.7 ± 0.7 kg/m3, the mass density ([2]; 413.15 K, 700 kPa) was 915.7 ± 0.7 kg/m3 and the mass density ([2]; 423.15 K, 700 kPa) was 906.4 ± 0.7 kg/m3.
